pIC50: −log10 of the molar value.
Tested on: 521955-158-R2-J5-PDC complex spheroid viability
Assay: Anticancer human tumor 521955-158-R2-J5-PDC patient-derived pancreatic carcinoma cell line growth inhibition [GQUAD]
Conditions: for pIC50: curve of first compound; for viability, T/C: stronger effect = lower value
Procedure, shortened: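 Viability of tumor cells grown as complex spheroids with endothelial and stromal cells, exposed to drug combinations. Top concentration at or near clinical Cmax (else 10 microM), diluted in half-log increments.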

[1] = second compound 0.0316 µM, first compound 0.0316 µM
[2] = second compound 0.0316 µM, first compound 0.1 µM
[3] = second compound 0.0316 µM, first compound 0.316 µM
[4] = second compound 0.0316 µM, first compound 1 µM
[5] = second compound 0.0316 µM, first compound 3.16 µM
[6] = second compound 0.0316 µM, first compound 10 µM
[7] = second compound 0.1 µM, first compound 0.0316 µM
[8] = second compound 0.1 µM, first compound 0.1 µM
[9] = second compound 0.1 µM, first compound 0.316 µM
[10] = second compound 0.1 µM, first compound 1 µM
[11] = second compound 0.1 µM, first compound 3.16 µM
[12] = second compound 0.1 µM, first compound 10 µM
[13] = second compound 0.316 µM, first compound 0.0316 µM
[14] = second compound 0.316 µM, first compound 0.1 µM
[15] = second compound 0.316 µM, first compound 0.316 µM
[16] = second compound 0.316 µM, first compound 1 µM
[17] = second compound 0.316 µM, first compound 3.16 µM
[18] = second compound 0.316 µM, first compound 10 µM
[19] = second compound 1 µM, first compound 0.0316 µM
[20] = second compound 1 µM, first compound 0.1 µM
[21] = second compound 1 µM, first compound 0.316 µM
[22] = second compound 1 µM, first compound 1 µM
[23] = second compound 1 µM, first compound 3.16 µM
[24] = second compound 1 µM, first compound 10 µM
[25] = second compound 3.16 µM, first compound 0.0316 µM
[26] = second compound 3.16 µM, first compound 0.1 µM
[27] = second compound 3.16 µM, first compound 0.316 µM
[28] = second compound 3.16 µM, first compound 1 µM
[29] = second compound 3.16 µM, first compound 3.16 µM
[30] = second compound 3.16 µM, first compound 10 µM
[31] = second compound 10 µM, first compound 0.0316 µM
[32] = second compound 10 µM, first compound 0.1 µM
[33] = second compound 10 µM, first compound 0.316 µM
[34] = second compound 10 µM, first compound 1 µM
[35] = second compound 10 µM, first compound 3.16 µM
[36] = second compound 10 µM, first compound 10 µM
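Further: spheroids exposed to agents for one week before reading.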
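Wherever viability, T/C is given: 100% = DMSO vehicle control viability.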

Structure (SMILES): C=CC(=O)N1CCN(c2nc(=O)n(-c3c(C)ccnc3C(C)C)c3nc(-c4c(O)cccc4F)c(F)cc23)C(C)C1 (stereo not drawn) + CN(C)c1ccc(Nc2c3ccc(NC(=O)CCN4CCCC4)cc3nc3cc(NC(=O)CCN4CCCC4)ccc23)cc1
- pIC50 (second compound 0.0316 µM): < 5.00
- pIC50 (second compound 0.1 µM): < 5.00
- pIC50 (second compound 0.316 µM): < 5.00
- pIC50 (second compound 1 µM): < 5.00
- pIC50 (second compound 3.16 µM): < 5.00
- pIC50 (second compound 10 µM): < 5.00
- viability, T/C [1]: 103%
- viability, T/C [2]: 94.1%
- viability, T/C [3]: 105%
- viability, T/C [4]: 96.8%
- viability, T/C [5]: 108%
- viability, T/C [6]: 101%
- viability, T/C [7]: 98.2%
- viability, T/C [8]: 105%
- viability, T/C [9]: 119%
- viability, T/C [10]: 111%
- viability, T/C [11]: 122%
- viability, T/C [12]: 93.3%
- viability, T/C [13]: 91.7%
- viability, T/C [14]: 90.4%
- viability, T/C [15]: 101%
- viability, T/C [16]: 114%
- viability, T/C [17]: 101%
- viability, T/C [18]: 95.3%
- viability, T/C [19]: 90.3%
- viability, T/C [20]: 84.5%
- viability, T/C [21]: 94.1%
- viability, T/C [22]: 112%
- viability, T/C [23]: 100%
- viability, T/C [24]: 81.3%
- viability, T/C [25]: 71.7%
- viability, T/C [26]: 87.5%
- viability, T/C [27]: 85.5%
- viability, T/C [28]: 96.9%
- viability, T/C [29]: 96.7%
- viability, T/C [30]: 73.5%
- viability, T/C [31]: 77.5%
- viability, T/C [32]: 72.8%
- viability, T/C [33]: 72.5%
- viability, T/C [34]: 70.6%
- viability, T/C [35]: 101%
- viability, T/C [36]: 70.6%

Structure (SMILES): CCCS(=O)(=O)Nc1ccc(F)c(C(=O)c2c[nH]c3ncc(-c4ccc(Cl)cc4)cc23)c1F + Cc1cnc(CNC(=O)c2c(=O)c3ccc(N4CCCN(C)CC4)nc3n3c2sc2ccccc23)cn1
- pIC50 (second compound 0.0316 µM): 5.03
- pIC50 (second compound 0.1 µM): < 5.00
- pIC50 (second compound 0.316 µM): > 7.50
- pIC50 (second compound 1 µM): > 7.50
- pIC50 (second compound 3.16 µM): > 7.50
- pIC50 (second compound 10 µM): > 7.50
- viability, T/C [1]: 79.5%
- viability, T/C [2]: 63.5%
- viability, T/C [3]: 113%
- viability, T/C [4]: 113%
- viability, T/C [5]: 109%
- viability, T/C [6]: 46.8%
- viability, T/C [7]: 52.4%
- viability, T/C [8]: 69.6%
- viability, T/C [9]: 59.4%
- viability, T/C [10]: 64%
- viability, T/C [11]: 61.8%
- viability, T/C [12]: 39%
- viability, T/C [13]: 32%
- viability, T/C [14]: 37.3%
- viability, T/C [15]: 27.1%
- viability, T/C [16]: 32.6%
- viability, T/C [17]: 35.7%
- viability, T/C [18]: 26.4%
- viability, T/C [19]: 17.8%
- viability, T/C [20]: 18.2%
- viability, T/C [21]: 17.9%
- viability, T/C [22]: 18.9%
- viability, T/C [23]: 24.2%
- viability, T/C [24]: 16.8%
- viability, T/C [25]: 12.7%
- viability, T/C [26]: 14.3%
- viability, T/C [27]: 16.8%
- viability, T/C [28]: 16.1%
- viability, T/C [29]: 20.7%
- viability, T/C [30]: 0.32%
- viability, T/C [31]: 9.58%
- viability, T/C [32]: 16.2%
- viability, T/C [33]: 16.9%
- viability, T/C [34]: 18.7%
- viability, T/C [35]: 21.4%
- viability, T/C [36]: 0.33%

Structure (SMILES): CC1COCCN1c1cc(-c2ccnn2C)c2ccnc(-c3ccn[nH]3)c2n1 (stereo not drawn) + CN(C)c1ccc(Nc2c3ccc(NC(=O)CCN4CCCC4)cc3nc3cc(NC(=O)CCN4CCCC4)ccc23)cc1
- pIC50 (second compound 0.0316 µM): 7.18
- pIC50 (second compound 0.1 µM): 7.26
- pIC50 (second compound 0.316 µM): 7.25
- pIC50 (second compound 1 µM): 7.28
- pIC50 (second compound 3.16 µM): 7.28
- pIC50 (second compound 10 µM): 7.49
- viability, T/C [1]: 86.1%
- viability, T/C [2]: 30.1%
- viability, T/C [3]: 19.8%
- viability, T/C [4]: 20.6%
- viability, T/C [5]: 26.6%
- viability, T/C [6]: 33.5%
- viability, T/C [7]: 66.2%
- viability, T/C [8]: 33.7%
- viability, T/C [9]: 21.2%
- viability, T/C [10]: 20.9%
- viability, T/C [11]: 26.8%
- viability, T/C [12]: 40.1%
- viability, T/C [13]: 69.6%
- viability, T/C [14]: 31.2%
- viability, T/C [15]: 15.5%
- viability, T/C [16]: 19.8%
- viability, T/C [17]: 31.2%
- viability, T/C [18]: 39.2%
- viability, T/C [19]: 66.5%
- viability, T/C [20]: 31.1%
- viability, T/C [21]: 16%
- viability, T/C [22]: 18.4%
- viability, T/C [23]: 34.4%
- viability, T/C [24]: 30.2%
- viability, T/C [25]: 68%
- viability, T/C [26]: 28.4%
- viability, T/C [27]: 17.4%
- viability, T/C [28]: 17.5%
- viability, T/C [29]: 25.1%
- viability, T/C [30]: 33.6%
- viability, T/C [31]: 50.1%
- viability, T/C [32]: 36%
- viability, T/C [33]: 21.6%
- viability, T/C [34]: 23.8%
- viability, T/C [35]: 23.2%
- viability, T/C [36]: 26.6%

Structure (SMILES): CC1COCCN1c1cc(C2(S(C)(=N)=O)CC2)nc(-c2ccnc3[nH]ccc23)n1 (stereo not drawn) + CN(C)c1ccc(Nc2c3ccc(NC(=O)CCN4CCCC4)cc3nc3cc(NC(=O)CCN4CCCC4)ccc23)cc1
- pIC50 (second compound 0.0316 µM): 6.06
- pIC50 (second compound 0.1 µM): 6.08
- pIC50 (second compound 0.316 µM): 5.99
- pIC50 (second compound 1 µM): 6.07
- pIC50 (second compound 3.16 µM): 5.88
- pIC50 (second compound 10 µM): 5.86
- viability, T/C [1]: 99.7%
- viability, T/C [2]: 93.1%
- viability, T/C [3]: 98%
- viability, T/C [4]: 44.1%
- viability, T/C [5]: 16.2%
- viability, T/C [6]: 17.2%
- viability, T/C [7]: 104%
- viability, T/C [8]: 112%
- viability, T/C [9]: 117%
- viability, T/C [10]: 38.4%
- viability, T/C [11]: 17.5%
- viability, T/C [12]: 16.8%
- viability, T/C [13]: 97.1%
- viability, T/C [14]: 99.2%
- viability, T/C [15]: 99%
- viability, T/C [16]: 50.6%
- viability, T/C [17]: 12.9%
- viability, T/C [18]: 13.7%
- viability, T/C [19]: 99.3%
- viability, T/C [20]: 93.8%
- viability, T/C [21]: 91.5%
- viability, T/C [22]: 43.3%
- viability, T/C [23]: 14.8%
- viability, T/C [24]: 14.5%
- viability, T/C [25]: 86.4%
- viability, T/C [26]: 78.4%
- viability, T/C [27]: 89.2%
- viability, T/C [28]: 61.5%
- viability, T/C [29]: 15.8%
- viability, T/C [30]: 14.8%
- viability, T/C [31]: 61%
- viability, T/C [32]: 76.7%
- viability, T/C [33]: 69.1%
- viability, T/C [34]: 58.9%
- viability, T/C [35]: 26.9%
- viability, T/C [36]: 20.5%
